Patent EP0908457B1, “3-(1,2-benzisothiazol- and isoxazol-5-Y1)-2,4(1H,3H)-pyrimidinedione or thione and 3-(1,2-benzisothiazol- and isoxazol-5-y1)-4(3H)-pyrimidinone or thione herbicidal agents” (BASF AKTIENGESELLSCHAFT, priority 1997, dated 1999)

Columns and labels:
[1] = test system: Oryza sativa, (L.) Tebonnet; test: Rice tolerance to post-transplant applications under flooded paddy conditions (Example 187), ORYSAT (Rice, Tebonnet); conditions: rated three to four weeks after treatment
[2] = test system: Echinochloa oryzoides (Ard.) Fritsch.; test: Preemergence weed control under flooded paddy conditions, ECHORC (Watergrass (Calif.)); assay type: in vivo; conditions: preemergence, flooded paddy, rated three to four weeks after treatment; also: meaning of each grade not given here

Structure (SMILES)	herbicidal effect rating, ORYSAT (rice tolerance) ([1]; 0.0313 kg/ha)	herbicidal effect rating, ORYSAT (rice tolerance) ([1]; 0.0625 kg/ha)	herbicidal effect rating, ORYSAT (rice tolerance) ([1]; 0.1250 kg/ha)	herbicidal effect rating, ORYSAT (rice tolerance) ([1]; 0.2500 kg/ha)	herbicidal effect rating, ECHORC ([2]; 0.0313 kg/ha)	herbicidal effect rating, ECHORC ([2]; 0.0625 kg/ha)	herbicidal effect rating, ECHORC ([2]; 0.1250 kg/ha)	herbicidal effect rating, ECHORC ([2]; 0.2500 kg/ha)
Cc1ccc(OCC(=O)OC(C)C(C)(C)C)c(-c2nsc3ccc(-n4c(=O)cc(C(F)(F)F)n(C)c4=O)cc23)c1 (centres unmarked) [Example 85, 1,2,2-Trimethylpropyl {{2-{5-[3,6-dihydro-3-methyl-2,6-dioxo-4-(trifluoromethyl)-1(2H)-pyrimidinyl]-1,2-benzisothiazol-3-yl}-p-tolyl}oxy}acetate]	0.0	0.0	0.0	1.0	8.0	9.0	9.0	9.0
Cn1c(C(F)(F)F)cc(=O)n(-c2ccc3snc(Br)c3c2)c1=O [Example 36, 3-(3-Bromo-1,2-benzisothiazol-5-yl)-1-methyl-6-(trifluoromethyl)-2,4(1H,3H)-pyrimidinedione]	1.0	1.0	1.0	1.0	0.0	0.0	0.0	0.0
Cn1c(C(F)(F)F)cc(=O)n(-c2ccc3snc(CP(=O)(O)O)c3c2)c1=O [Example 92, {{5-[3,6-Dihydro-3-methyl-2,6-dioxo-4-(trifluoromethyl)-1(2H)-pyrimidinyl]-1,2-benzisothiazol-3-yl}methyl}phosphonic acid]	3.0	5.0	6.0	6.0	4.0	6.0	9.0	9.0
Cn1c(C(F)(F)F)cc(=O)n(-c2ccc3snc(Cl)c3c2)c1=O [Example 37, 3-(3-Chloro-1,2-benzisothiazol-5-yl)-1-methyl-6-(trifluoromethyl)-2,4(1H,3H)-pyrimidinedione]	0.0	1.0	1.0	1.0	4.0	7.0	8.0	9.0
